Assay results taken from patent US9371331B2, “Modulators of methyl modifying enzymes, compositions and uses thereof” (Constellation Pharmaceuticals, Inc., priority 2012, dated 2016).
pIC50: −log10 of the molar value. Where two headings read alike, the source gives them in different places.

How the values were obtained:
[1] = biological target: EZH2 (rPRC2) (Homo sapiens, UniProt Q15910); test: EZH2 assay: rPRC2, biotinylated oligonucleosomes, 3H SAM methyl transfer (FlashPlate scintillation); type: biochemical; details: biotinylated oligonucleosome substrate
Chain of EZH2 (rPRC2) (Q15910 whole entry): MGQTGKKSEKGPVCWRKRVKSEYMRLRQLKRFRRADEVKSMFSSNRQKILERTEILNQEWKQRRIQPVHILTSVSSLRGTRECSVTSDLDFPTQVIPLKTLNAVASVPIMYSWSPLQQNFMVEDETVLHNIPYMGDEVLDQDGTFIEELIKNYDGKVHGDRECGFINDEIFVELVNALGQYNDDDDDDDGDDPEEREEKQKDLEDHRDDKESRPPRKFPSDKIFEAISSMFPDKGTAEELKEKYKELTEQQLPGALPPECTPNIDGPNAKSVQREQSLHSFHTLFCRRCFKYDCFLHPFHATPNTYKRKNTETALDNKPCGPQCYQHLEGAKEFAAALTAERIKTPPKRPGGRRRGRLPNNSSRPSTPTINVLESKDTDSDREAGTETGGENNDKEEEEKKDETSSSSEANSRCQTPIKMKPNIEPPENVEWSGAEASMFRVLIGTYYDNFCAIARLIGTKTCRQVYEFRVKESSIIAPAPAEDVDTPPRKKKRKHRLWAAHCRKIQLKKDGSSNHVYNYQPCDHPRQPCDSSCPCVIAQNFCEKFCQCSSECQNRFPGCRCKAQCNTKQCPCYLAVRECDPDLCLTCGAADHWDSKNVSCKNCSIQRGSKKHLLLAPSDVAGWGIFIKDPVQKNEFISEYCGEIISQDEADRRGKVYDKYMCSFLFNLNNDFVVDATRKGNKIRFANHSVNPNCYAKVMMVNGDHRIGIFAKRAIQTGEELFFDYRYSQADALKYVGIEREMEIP
Chain of EZH2 (rPRC2) (O75530 whole entry partner): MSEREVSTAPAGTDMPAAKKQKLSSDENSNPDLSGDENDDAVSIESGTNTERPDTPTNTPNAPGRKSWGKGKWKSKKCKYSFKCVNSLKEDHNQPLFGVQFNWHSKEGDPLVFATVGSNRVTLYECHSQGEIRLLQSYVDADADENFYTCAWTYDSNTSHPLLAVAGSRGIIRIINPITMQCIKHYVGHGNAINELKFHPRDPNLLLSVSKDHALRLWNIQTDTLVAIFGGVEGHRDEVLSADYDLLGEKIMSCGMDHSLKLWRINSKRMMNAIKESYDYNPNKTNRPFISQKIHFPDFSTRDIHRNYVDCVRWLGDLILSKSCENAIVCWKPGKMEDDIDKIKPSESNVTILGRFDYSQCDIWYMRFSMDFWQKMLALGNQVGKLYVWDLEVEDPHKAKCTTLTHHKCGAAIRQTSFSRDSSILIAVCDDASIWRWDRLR
Chain of EZH2 (rPRC2) (Q15022 whole entry partner): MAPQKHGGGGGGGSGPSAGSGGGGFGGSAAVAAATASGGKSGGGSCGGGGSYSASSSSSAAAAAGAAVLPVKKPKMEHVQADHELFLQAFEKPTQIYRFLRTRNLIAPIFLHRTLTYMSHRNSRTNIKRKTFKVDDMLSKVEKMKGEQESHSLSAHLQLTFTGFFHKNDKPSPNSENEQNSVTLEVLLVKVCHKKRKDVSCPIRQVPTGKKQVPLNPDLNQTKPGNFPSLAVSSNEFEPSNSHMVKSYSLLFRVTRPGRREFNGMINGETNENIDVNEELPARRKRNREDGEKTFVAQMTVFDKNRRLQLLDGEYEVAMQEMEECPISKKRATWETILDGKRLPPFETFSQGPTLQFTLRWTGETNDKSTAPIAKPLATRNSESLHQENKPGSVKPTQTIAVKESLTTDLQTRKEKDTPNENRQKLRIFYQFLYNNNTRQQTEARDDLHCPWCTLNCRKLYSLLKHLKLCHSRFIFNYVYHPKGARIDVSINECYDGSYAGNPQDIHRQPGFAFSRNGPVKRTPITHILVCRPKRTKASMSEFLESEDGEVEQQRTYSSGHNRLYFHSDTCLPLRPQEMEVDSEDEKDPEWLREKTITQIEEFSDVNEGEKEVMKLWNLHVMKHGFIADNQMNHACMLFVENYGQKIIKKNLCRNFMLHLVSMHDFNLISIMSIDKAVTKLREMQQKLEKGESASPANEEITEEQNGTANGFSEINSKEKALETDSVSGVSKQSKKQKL

[2] = biological target: Y641N EZH2 (Homo sapiens, UniProt Q15910, Y641N); test: Y641N EZH2 assay: as EZH2 assay, with reconstituted H3K27Me2 oligonucleosomes as substrate; type: biochemical
Chain of Y641N EZH2 (Q15910 whole entry Y641N): as the sequence (Q15910 whole entry) above, with Y641N counted along it
Chain of Y641N EZH2 (O75530 whole entry partner): as the sequence (O75530 whole entry partner) above
Chain of Y641N EZH2 (Q15022 whole entry partner): as the sequence (Q15022 whole entry partner) above

[3] = Y641N mutant EZH2, H3K27Me2 oligonucleosome substrate
[4] = wild-type EZH2 (rPRC2), read-out: EZH2 IC50
[5] = Y641N mutant EZH2, H3K27Me2 oligonucleosome substrate, read-out: Y641N EZH2 IC50
[6] = EZH2 IC50, wild-type EZH2 (rPRC2)
[7] = Y641N EZH2 IC50, Y641N mutant EZH2, H3K27Me2 oligonucleosome substrate

SMILES	pIC50 [1, 4]	pIC50 [2, 5]	pIC50 [1, 6]	pIC50 [2, 7]	further results
Cc1cc(C)c(CNC(=O)c2c(-c3ccccc3)n(C(C)c3ccccc3)c3ccccc23)c(O)n1 (single isomer, unassigned) [Compound 445, (R or S)-N-((2-hydroxy-4,6-dimethylpyridin-3-yl)methyl)-2-phenyl-1-(1-phenylethyl)-1H-indole-3-carboxamide]					EZH2 IC50 ([1]; wild-type EZH2 (rPRC2)): *(10 uM); Y641N EZH2 IC50 [2, 3]: *(10 uM)
Cc1cc(C)c(CNC(=O)c2cnn(-c3ccccc3)c2C)c(=O)[nH]1 [Compound 100, N-((4,6-dimethyl-2-oxo-1,2-dihydropyridin-3-yl)methyl)-5-methyl-1-phenyl-1H-pyrazole-4-carboxamide]	5.00 to 6.00	< 5.00			
Cc1cc(C)c(CNC(=O)c2cnn(Cc3ccccc3)c2C)c(O)n1 [Compound 109, 1-benzyl-N-((2-hydroxy-4,6-dimethylpyridin-3-yl)methyl)-5-methyl-1H-pyrazole-4-carboxamide]					EZH2 IC50 ([1]; wild-type EZH2 (rPRC2)): *(10 μM); Y641N EZH2 IC50 [2, 3]: *(10 μM)
Cc1cc(C)c(CNC(=O)c2cnn(CCc3ccccc3)c2C)c(O)n1 [Compound 110, N-((2-hydroxy-4,6-dimethylpyridin-3-yl)methyl)-5-methyl-1-phenethyl-1H-pyrazole-4-carboxamide]					EZH2 IC50 ([1]; wild-type EZH2 (rPRC2)): *(10 μM); Y641N EZH2 IC50 [2, 3]: *(10 μM)
Cc1cc(C)c(CNC(=O)c2nn(C(C)c3ccccc3)c3ccccc23)c(O)n1 (stereo not shown) [Compound 112, N-((2-hydroxy-4,6-dimethylpyridin-3-yl)methyl)-1-(1-phenylethyl)-1H-indazole-3-carboxamide]					EZH2 IC50 ([1]; wild-type EZH2 (rPRC2)): *(10 μM); Y641N EZH2 IC50 [2, 3]: *(10 μM)
Cc1cc(C)c(CNC(=O)c2cn(-c3ccccc3C)c3ccccc23)c(O)n1 [Compound 113, N-((2-hydroxy-4,6-dimethylpyridin-3-yl)methyl)-1-(o-tolyl)-1H-indole-3-carboxamide]	6.00 to 7.00	5.00 to 6.00			
Cc1cc(C)c(CNC(=O)c2c(C)n(Cc3ccccc3)c3ccccc23)c(O)n1 [Compound 119, 1-benzyl-N-((2-hydroxy-4,6-dimethylpyridin-3-yl)methyl)-2-methyl-1H-indole-3-carboxamide]			> 7.00	6.00 to 7.00	
Cc1cc(C)c(CNC(=O)c2c(C)n(-c3ccccc3)c3ccccc23)c(O)n1 [Compound 133, N-((2-hydroxy-4,6-dimethylpyridin-3-yl)methyl)-2-methyl-1-phenyl-1H-indole-3-carboxamide]	> 7.00	6.00 to 7.00			
Cc1cc(C)c(CNC(=O)c2cn(S(=O)(=O)c3ccccc3)c3ccccc23)c(=O)[nH]1 [Compound 135, N-((4,6-dimethyl-2-oxo-1,2-dihydropyridin-3-yl)methyl)-1-(phenylsulfonyl)-1H-indole-3-carboxamide]	5.00 to 6.00	< 5.00			
COc1ncc2c(C(=O)NCc3c(C)cc(C)nc3O)c(C)n([C@H](C)c3ccccc3)c2n1 [Compound 141, (R)—N-((2-hydroxy-4,6-dimethylpyridin-3-yl)methyl)-2-methoxy-6-methyl-7-(1-phenylethyl)-7H-pyrrolo[2,3-d]pyrimidine-5-carboxamide]			6.00 to 7.00	5.00 to 6.00	
Cc1cc(C)c(CNC(=O)c2c(C)n([C@H](C)c3ccccc3)c3nc(N4CCCC4)ncc23)c(O)n1 [Compound 142, (R)—N-((2-hydroxy-4,6-dimethylpyridin-3-yl)methyl)-6-methyl-7-(1-phenylethyl)-2-(pyrrolidin-1-yl)-7H-pyrrolo[2,3-d]pyrimidine-5-carboxamide]			6.00 to 7.00	5.00 to 6.00	
Cc1cc(C)c(CNC(=O)c2c(C)n(Cc3cncnc3)c3ccccc23)c(=O)[nH]1 [Compound 149, N-((4,6-dimethyl-2-oxo-1,2-dihydropyridin-3-yl)methyl)-2-methyl-1-(pyrimidin-5-ylmethyl)-1H-indole-3-carboxamide]			6.00 to 7.00	5.00 to 6.00	
Cc1cc(C)c(CNC(=O)c2c(C)n(C(=O)c3ccccc3)c3ccccc23)c(O)n1 [Compound 150, 1-benzoyl-N-((2-hydroxy-4,6-dimethylpyridin-3-yl)methyl)-2-methyl-1H-indole-3-carboxamide]	6.00 to 7.00	6.00 to 7.00			
Cc1cc(C)c(CNC(=O)c2c(C)n([C@H](C)c3ccccc3)c3nc(Cl)ncc23)c(O)n1 [Compound 167]			6.00 to 7.00	6.00 to 7.00	
Cc1cc(C)c(CNC(=O)c2c(C)n([C@H](C)c3ccccc3)c3nc(C4CCOCC4)ncc23)c(O)n1 [Compound 168, (R)-N-((2-hydroxy-4,6-dimethylpyridin-3-yl)methyl)-6-methyl-7-(1-phenylethyl)-2-(tetrahydro-2H-pyran-4-yl)-7H-pyrrolo[2,3-d]pyrimidine-5-carboxamide]	6.00 to 7.00	5.00 to 6.00			
Cc1cc(C)c(CNC(=O)c2c(C)n(-c3cccc(C)c3C)c3ccccc23)c(=O)[nH]1 [Compound 173, N-((4,6-dimethyl-2-oxo-1,2-dihydropyridin-3-yl)methyl)-1-(2,3-dimethylphenyl)-2-methyl-1H-indole-3-carboxamide]	> 7.00	6.00 to 7.00			
Cc1cc(C)c(CNC(=O)c2c(C)n([C@H](C)c3ccccc3)c3nc(C)ncc23)c(O)n1 [Compound 176, (R)-N-((2-hydroxy-4,6-dimethylpyridin-3-yl)methyl)-2,6-dimethyl-7-(1-phenylethyl)-7H-pyrrolo[2,3-d]pyrimidine-5-carboxamide]			> 7.00	6.00 to 7.00	
Cc1cc(C)c(CNC(=O)c2c(C)n([C@H](C)c3ccccc3)c3nc(C(C)C)ncc23)c(O)n1 [Compound 177, (R)-N-((2-hydroxy-4,6-dimethylpyridin-3-yl)methyl)-2-isopropyl-6-methyl-7-(1-phenylethyl)-7H-pyrrolo[2,3-d]pyrimidine-5-carboxamide]			> 7.00	6.00 to 7.00	
CC[C@@H](C)n1c(C)c(C(=O)NCc2c(C)cc(C)[nH]c2=O)c2cnc(Cl)nc21 [Compound 184, (R)-7-(sec-butyl)-2-chloro-N-((4,6-dimethyl-2-oxo-1,2-dihydropyridin-3-yl)methyl)-6-methyl-7H-pyrrolo[2,3-d]pyrimidine-5-carboxamide]			6.00 to 7.00	5.00 to 6.00	
CC[C@@H](C)n1c(C)c(C(=O)NCc2c(C)cc(C)nc2O)c2cnc(-c3ccccc3)nc21 [Compound 188, (R)-7-(sec-butyl)-N-((2-hydroxy-4,6-dimethylpyridin-3-yl)methyl)-6-methyl-2-phenyl-7H-pyrrolo [2,3-d]pyrimidine-5-carboxamide]	6.00 to 7.00	5.00 to 6.00			
CC[C@@H](C)n1c(C)c(C(=O)NCc2c(C)cc(C)nc2O)c2cncnc21 [Compound 189, (R)-7-(sec-butyl)-N-((2-hydroxy-4,6-dimethylpyridin-3-yl)methyl)-6-methyl-7H-pyrrolo[2,3-d]pyrimidine-5-carboxamide]			6.00 to 7.00	5.00 to 6.00	
Cc1cc(C)c(CNC(=O)c2c(C)n(S(=O)(=O)N3CCCCC3)c3ncccc23)c(=O)[nH]1 [Compound 194, N-((4,6-dimethyl-2-oxo-1,2-dihydropyridin-3-yl)methyl)-2-methyl-1-(piperidin-1-ylsulfonyl)-1H-pyrrolo[2,3-b]pyridine-3-carboxamide]	6.00 to 7.00	5.00 to 6.00			
CC[C@@H](C)n1c(C)c(C(=O)NCc2c(C)cc(C)[nH]c2=O)c2cnc(C(C)C)nc21 [Compound 197, (R)-7-(sec-butyl)-N-((4,6-dimethyl-2-oxo-1,2-dihydropyridin-3-yl)methyl)-2-isopropyl-6-methyl-7H-pyrrolo[2,3-d]pyrimidine-5-carboxamide]			6.00 to 7.00	6.00 to 7.00	
CC[C@@H](C)n1c(C)c(C(=O)NCc2c(C)cc(C)[nH]c2=O)c2cnc(C(=O)NC)nc21 [Compound 198, (R)-7-(sec-butyl)-N5-((4,6-dimethyl-2-oxo-1,2-dihydropyridin-3-yl)methyl)-N2,6-dimethyl-7H-pyrrolo[2,3-d]pyrimidine-2,5-dicarboxamidc]	5.00 to 6.00	5.00 to 6.00			
CC[C@@H](C)n1c(C)c(C(=O)NCc2c(C)cc(C)[nH]c2=O)c2cnc(CO)nc21 [Compound 199, (R)-7-(sec-butyl)-N-((4,6-dimethyl-2-oxo-1,2-dihydropyridin-3-yl)methyl)-2-(hydroxymethyl)-6-methyl-7H-pyrrolo[2,3-d]pyrimidine-5-carboxamide]	6.00 to 7.00	5.00 to 6.00			
CC[C@@H](C)n1c(C)c(C(=O)NCc2c(C)cc(C)[nH]c2=O)c2cnc(C)nc21 [Compound 200, (R)-7-(sec-butyl)-N-((4,6-dimethyl-2-oxo-1,2-dihydropyridin-3-yl)methyl)-2,6-dimethyl-7H-pyrrolo[2,3-d]pyrimidine-5-carboxamide]			6.00 to 7.00	5.00 to 6.00	
Cc1cc(C)c(CNC(=O)c2c(C)n(C3CCOCC3)c3ncccc23)c(=O)[nH]1 [Compound 244, N-((4,6-dimethyl-2-oxo-1,2-dihydropyridin-3-yl)methyl)-2-methyl-1-(tetrahydro-2H-pyran-4-yl)-1H-pyrrolo[2,3-b]pyridine-3-carboxamide]			6.00 to 7.00	5.00 to 6.00	
Cc1cc(C)c(CNC(=O)c2c(C)n(CC3(C)COC3)c3ccccc23)c(=O)[nH]1 [Compound 246, N-((4,6-dimethyl-2-oxo-1,2-dihydropyridin-3-yl)methyl)-2-methyl-1-((3-methyloxetan-3-yl)methyl)-1H-indole-3-carboxamide]			6.00 to 7.00	6.00 to 7.00	
CNC(=O)c1cccc(C(C)n2c(C)c(C(=O)NCc3c(OC)cc(C)[nH]c3=O)c3cccnc32)c1 (stereo not shown) [Compound 263, N-((4-methoxy-6-methyl-2-oxo-1,2-dihydropyridin-3-yl)methyl)-2-methyl-1-(1-(3-(methylcarbamoyl)phenyl)ethyl)-1H-pyrrolo[2,3-b]pyridine-3-carboxamide]	> 7.00	6.00 to 7.00			
